Results from patent publication US20200131669A1, “CYCLIC PEPTIDE COMPOUND HAVING HIGH MEMBRANE PERMEABILITY, AND LIBRARY CONTAINING SAME” (Chugai Seiyaku Kabushiki Kaisha, priority 2017, published 2020).
Starred links: 1 amine or outer side, 2 acyl side, 3 side chain; linkers in the order of their positions; H or OH if unused. Positions of bridges follow the written chain, without caps; N, C: chain ends. Non-standard residues stand in square brackets, D forms with d. Residues, ends and D or L forms follow the SMILES beside them. ξ: configuration not given here. *: point of attachment. NMeAbu(3,3-F2-piperidino) = CN[C@@H](CCN1CCCC(F)(F)C1)C(=O)O; NMeAla(4-thiazolyl) = CN[C@@H](Cc1cscn1)C(=O)O; X12 = CCCC[C@@H](O)[C@H](N[*:1])C(=O)[*:2]; hPhe(4-Cl) = N[C@@H](CCc1ccc(Cl)cc1)C(=O)O; NMeW = CN[C@@H](Cc1c[nH]c2ccccc12)C(=O)O; Ethyl(2-morpholino) = C1CN(CC*)CCO1; X3 = O=C([C@H](CCCCO)N[*:1])[*:2]; NMeF = CN[C@@H](Cc1ccccc1)C(=O)O; NMeGABA = CN(CCCC(=O)[*:2])[*:1]; NMeI = CC[C@H](C)[C@H](NC)C(=O)O; hPhe = N[C@@H](CCc1ccccc1)C(=O)O; NMeL = CN[C@@H](CC(C)C)C(=O)O; NMeV = CN[C@H](C(=O)O)C(C)C; NMeAbu = CC[C@H](NC)C(=O)O; NMeS = CN[C@@H](CO)C(=O)O; NMeA = CN[C@@H](C)C(=O)O; Piperidide = C1CCN(*)CC1; NBuGly = CCCCNCC(=O)O; Isopentyl = CC(C)CC*; Bn = c1ccc(C*)cc1; ξS = NC(CO)C(=O)O; Sar = CNCC(=O)O; CHF2 = FC(F)*

Assay: Caco-2 membrane permeability, improved method as used in the following Examples (96-well, 20 to 24 h preincubation)
Type: in vitro ADME
Conditions: Caco-2, Caco-2
In short: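 Papp (cm/sec) was derived from LC/MS of basal samples collected 180 min after apical dosing in FaSSIF/HBSS pH 6.0 with 1% DMSO, against a basal HBSS pH 7.4 receiver containing 4% BSA. Three-week Caco-2 cultures were first preincubated with compound in DMEM+FaSSIF at 37 °C for 20–24 h.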

Row | Structure (SMILES) | Papp A→B
1 | CC[C@H](C)[C@@H]1NC(=O)[C@H](Cc2ccccc2)N(C)C(=O)CN(C)C(=O)C[C@@H](C(=O)N2CCCCC2)NC(=O)[C@H](C(C)C)N(C)C(=O)[C@H](CCc2ccc(Cl)cc2)NC(=O)[C@H](CC(C)C)N(C)C(=O)[C@H](CC(C)C)N(C)C(=O)CN(C)C(=O)[C@H]([C@@H](C)O)NC(=O)[C@H](CC(C)C)N(C)C1=O [pd362] ([Sar][NMeF]I[NMeL]T[Sar][NMeL][NMeL][hPhe(4-Cl)][NMeV]D-Piperidide; lactam N-11) | 1 ×10⁻⁶ cm/s

Same assay, conditions: human, Caco-2, Caco-2

Row | Structure (SMILES) | Papp A→B at 180 min
2 | CC(C)C[C@H]1C(=O)N[C@H](C(=O)N2CCCCC2)CC(=O)N(C)[C@@H](C)C(=O)N[C@@H](C(C)C)C(=O)N(C)[C@@H](CC(C)C)C(=O)N(C)[C@@H](Cc2ccccc2)C(=O)N[C@@H](C(C)C)C(=O)N(C)[C@@H](Cc2ccccc2)C(=O)N(C)[C@@H](CC(C)C)C(=O)N[C@@H](CCCCO)C(=O)N(C)CC(=O)N1C [pd448] ([NMeA]V[NMeL][NMeF]V[NMeF][NMeL][X3][Sar][NMeL]D-Piperidide; lactam N-11) | 1.3 ×10⁻⁶ cm/s
3 | CC(C)C[C@@H]1NC(=O)C[C@@H](C(=O)N2CCCCC2)NC(=O)[C@H](CC(C)C)N(C)C(=O)[C@H](CC(C)C)N(C)C(=O)[C@H](Cc2ccc(OC(F)F)cc2)NC(=O)[C@H](C)N(C)C(=O)CN(C)C(=O)[C@H]([C@@H](C)O)NC(=O)[C@H](CC(C)C)N(C)C(=O)[C@H](C(C)C)NC(=O)[C@H](Cc2ccccc2)N(C)C1=O [pd477] (L[NMeF]V[NMeL]T[Sar][NMeA]Y(CHF2)[NMeL][NMeL]D-Piperidide; lactam N-11) | 2.2 ×10⁻⁶ cm/s
4 | CC(C)C[C@H]1C(=O)N[C@H](C(=O)N2CCCCC2)CC(=O)N(C)[C@@H](C)C(=O)N[C@@H](C(C)C)C(=O)N(C)[C@@H](CC(C)C)C(=O)N(C)[C@@H](Cc2ccccc2)C(=O)N[C@@H](C)C(=O)N(C)[C@@H](C)C(=O)N(C)[C@@H](CC(C)C)C(=O)N[C@@H](CCc2ccccc2)C(=O)N(C)CC(=O)N1C [pd318] ([NMeA]V[NMeL][NMeF]A[NMeA][NMeL][hPhe][Sar][NMeL]D-Piperidide; lactam N-11) | 2.5 ×10⁻⁶ cm/s
5 | CCCC[C@@H](O)[C@@H]1NC(=O)[C@H](Cc2ccccc2)N(C)C(=O)[C@H](Cc2ccccc2)N(C)C(=O)[C@H]([C@@H](C)CC)NC(=O)[C@H](CC(C)C)N(C)C(=O)CCCN(C)C(=O)C[C@@H](C(=O)N2CCCCC2)NC(=O)[C@H](CC(C)C)N(C)C(=O)[C@H](C)N(C)C(=O)[C@H]([C@@H](C)O)NC(=O)[C@H](CC(C)C)N(C)C1=O [pd468] ([NMeGABA][NMeL]I[NMeF][NMeF][X12][NMeL]T[NMeA][NMeL]D-Piperidide; lactam N-11) | 1 ×10⁻⁶ cm/s
6 | CC[C@H](C)[C@H]1C(=O)N[C@@H]([C@@H](C)O)C(=O)N(C)CC(=O)N(C)[C@@H](CC(C)C)C(=O)N[C@H](C(=O)N2CCCCC2)CC(=O)N(C)[C@@H](C)C(=O)N[C@@H](CC(C)C)C(=O)N(C)[C@@H](CC(C)C)C(=O)N(C)[C@@H](C)C(=O)N[C@@H](COc2ccccc2Cl)C(=O)N(C)[C@@H](Cc2ccccc2)C(=O)N1C [pd341] | 1.4 ×10⁻⁶ cm/s
7 | CC[C@H]1C(=O)N[C@@H]([C@@H](C)O)C(=O)N(C)CC(=O)N(C)[C@@H](COCCC(C)C)C(=O)N[C@@H](CC(C)C)C(=O)N(C)[C@@H](Cc2ccccc2)C(=O)N(C)[C@@H](CC(C)C)C(=O)N[C@H](C(=O)N2CCCCC2)CC(=O)N[C@H](C(C)C)C(=O)N(C)[C@@H](Cc2ccccc2)C(=O)N[C@@H](CC(C)C)C(=O)N1C [pd306] ([dV][NMeF]L[NMeAbu]T[Sar][NMeS](Isopentyl)L[NMeF][NMeL]D-Piperidide; lactam N-11) | 1.2 ×10⁻⁶ cm/s
8 | CCCCN1CC(=O)N(C)[C@@H](C(C)C)C(=O)N[C@@H](CC(C)C)C(=O)N(C)[C@@H](Cc2ccccc2)C(=O)N(C)[C@@H](CCN2CCCC(F)(F)C2)C(=O)N[C@H](C(=O)N2CCCCC2)CC(=O)N[C@H](C)C(=O)N(C)[C@@H](Cc2ccccc2)C(=O)N[C@@H](CC(C)C)C(=O)N(C)[C@@H](CC(C)C)C(=O)N[C@@H]([C@@H](C)O)C1=O [pd388] ([dA][NMeF]L[NMeL]T[NBuGly][NMeV]L[NMeF][NMeAbu(3,3-F2-piperidino)]D-Piperidide; lactam N-11) | 1.8 ×10⁻⁶ cm/s
9 | CCCCN1CC(=O)N(C)[C@@H](CC(C)C)C(=O)N[C@H](C(=O)N2CCCCC2)CC(=O)N(C)[C@@H](CC)C(=O)NC(COCCN2CCOCC2)C(=O)N(C)[C@@H](CC(C)C)C(=O)N(C)[C@@H](CC)C(=O)N[C@@H](C(C)C)C(=O)N(C)[C@@H](Cc2ccccc2)C(=O)N(C)[C@@H](CC(C)C)C(=O)N[C@@H]([C@@H](C)O)C1=O (stereo partly drawn) [pd483] ([NMeAbu][ξS](Ethyl(2-morpholino))[NMeL][NMeAbu]V[NMeF][NMeL]T[NBuGly][NMeL]D-Piperidide; lactam N-11) | 1.9 ×10⁻⁶ cm/s
10 | CC[C@H](C)[C@@H]1NC(=O)[C@H](Cc2ccccc2)N(C)C(=O)CN(C)C(=O)C[C@@H](C(=O)N2CCCCC2)NC(=O)[C@H]([C@@H](C)CC)N(C)C(=O)C(COCc2ccccc2)NC(=O)[C@H](CC(C)C)N(C)C(=O)[C@H](Cc2ccccc2)N(C)C(=O)CN(C)C(=O)[C@H]([C@@H](C)O)NC(=O)[C@H](CC(C)C)N(C)C1=O (stereo partly drawn) [pd370] ([Sar][NMeF]I[NMeL]T[Sar][NMeF][NMeL][ξS](Bn)[NMeI]D-Piperidide; lactam N-11) | 2.5 ×10⁻⁶ cm/s

Same assay, conditions: human, Caco-2, Caco-2 (cm/sec)

Row | Structure (SMILES) | Papp A→B at 180 min
11 | CC(C)C[C@H]1C(=O)N(C)[C@@H](Cc2c[nH]c3ccccc23)C(=O)N(C)[C@@H](Cc2ccccc2)C(=O)N[C@@H]([C@@H](C)O)C(=O)N(C)[C@@H](C)C(=O)N(C)[C@@H](CC(C)C)C(=O)N[C@H](C(=O)N2CCCCC2)CC(=O)N(C)[C@@H](C)C(=O)N(C)[C@@H](CC(C)C)C(=O)N(C)[C@@H](CC(C)C)C(=O)N[C@@H](C)C(=O)N1C [pd104] ([NMeA][NMeL][NMeL]A[NMeL][NMeW][NMeF]T[NMeA][NMeL]D-Piperidide; lactam N-11) | 0.025 ×10⁻⁶ cm/s
12 | CC(C)C[C@@H]1NC(=O)[C@H](CC(C)C)N(C)C(=O)[C@H](C)N(C)C(=O)C[C@@H](C(=O)N2CCCCC2)NC(=O)[C@H](CC(C)C)N(C)C(=O)[C@H](Cc2ccccc2)N(C)C(=O)[C@H](Cc2ccccc2)N(C)C(=O)[C@H]([C@@H](C)O)NC(=O)[C@H](Cc2ccccc2)N(C)C1=O [pd211] ([NMeA][NMeL]L[NMeF]T[NMeF][NMeF][NMeL]D-Piperidide; lactam N-9) | 1.4 ×10⁻⁶ cm/s
13 | CC(C)C[C@@H]1NC(=O)[C@H](Cc2ccccc2)N(C)C(=O)[C@H](C)N(C)C(=O)C[C@@H](C(=O)N2CCCCC2)NC(=O)[C@H](CC(C)C)N(C)C(=O)[C@H](Cc2ccccc2)N(C)C(=O)[C@H](Cc2ccccc2)NC(=O)[C@H](Cc2cscn2)N(C)C(=O)[C@H](C)N(C)C(=O)[C@H]([C@@H](C)O)NC(=O)[C@H](CC(C)C)N(C)C1=O [pd226] ([NMeA][NMeF]L[NMeL]T[NMeA][NMeAla(4-thiazolyl)]F[NMeF][NMeL]D-Piperidide; lactam N-11) | 0.68 ×10⁻⁶ cm/s
